From patent US20220152004A1, “HETEROCYCLYL(PHENYL)METHANOL COMPOUNDS USEFUL IN THE TREATMENT OF HYPERGLYCAEMIA” (ATROGI AB, priority 2019, published 2022)
Counter-ions that a name gives are not always drawn.

Key:
[1] = test system: L6-myotubes; assay: Glucose uptake (3H-2-deoxy-glucose) in differentiated L6-myotubes; type: cell-based; conditions: agonist final concentration 1×10^−5; for Emax at 10 µM: differentiated L6-myotubes, Table 1, read-out: Biological example 1 (glucose uptake, activity compared to that of isoproterenol); for Biological example 3: Table 2, glucose uptake assay of Biological Example 1
Procedure: (§1) L6-myoblasts were grown in Dulbecco's Modified Eagle's Medium (DMEM) containing 4.5 g/l glucose supplemented with 10% fetal bovine serum, 2 mM L-Glutamine, 50 U/ml penicillin, 50 μg/ml streptomycin and 10 mM HEPES. Cells were plated at 1×10^5 cells per ml in 24-well plates. After reaching 90% confluence the cells were grown in medium containing 2% FBS for 7 days where upon cells differentiated into myotubes.
Differentiated L6-myotubes were serum-starved overnight in medium containing 0,5% fatty-acid free BSA and stimulated with agonist, final concentration 1×10^−5. After 1 h 40 min cells were washed with warm, glucose free medium or PBS and another portion of agonist was added to glucose free medium. After 20 min the cells were exposed to 50 nM ^3H-2-deoxy-glucose for another 10 min before washed in ice cold glucose free medium or PBS and lysed in 0.2 M NaOH for 1 h in 60° C.

[2] = test system: L6-myotubes; assay: Measurement of intracellular cAMP levels in differentiated L6-myotubes; type: cell-based; conditions: for Emax at 10 µM: 0.25 h, agonist final concentration 1×10^−5, 15 min, differentiated cells, Table 1, read-out: Biological example 2 (intracellular cAMP levels, activity compared to that of isoproterenol); for Biological example 4: Table 2, cAMP assay of Biological Example 2, agonist final concentration 1×10^−5
Procedure: as §1
Differentiated cells were serum-starved overnight and stimulated with agonist, final concentration 1×10^−5, for 15 min in stimulation buffer (HBSS supplemented with 1% BSA, 5 mM HEPES and 1 mM IBMX, pH 7,4) The medium was then aspirated and to end the reaction 100 μL of 95% EtOH was added to each well of a 24-well plate and cells were kept in −20° C. over night. The EtOH was let to evaporate and 500 μL of lysis buffer (1% BSA, 5 mM HEPES and 0,3% Tween-20, pH 7,4) was added to each well before put in −80° C. for 30 min and then kept in −20° C. Intracellular cAMP levels were detected using an alpha screen cAMP kit (6760635D from Perkin Elmer). The activity for each compound is compared to that of isoproterenol.

| Compound | Emax at 10 µM [1] [%] | Emax at 10 µM [2] [%] | Biological example 3 [1] | Biological example 4 [2] |
| --- | --- | --- | --- | --- |
| CC1(C)CCC[C@H]([C@H](O)c2cccc(F)c2)N1 [Example 1, (R)-((R)-6,6-Dimethylpiperidin-2-yl)(3-fluorophenyl)methanol] | 50 to 75 | < 25 |  |  |
| CC1(C)CCC[C@H]([C@@H](O)c2cccc(F)c2)N1 [Example 2, (S)-((R)-6,6-Dimethylpiperidin-2-yl)(3-fluorophenyl)methanol] | < 25 | < 25 |  |  |
| CC1(C)CCC[C@H]([C@H](O)c2cccc(O)c2)N1 [Example 3, 3-((R)-((R)-6,6-Dimethylpiperidin-2-yl)(hydroxy)methyl)phenol acetate] | 25 to 50 | < 25 |  |  |
| CC1(C)CCC[C@H]([C@@H](O)c2cccc(O)c2)N1 [Example 4, 3-((S)-((R)-6,6-Dimethylpiperidin-2-yl)(hydroxy)methyl)phenol acetate] | 25 to 50 | < 25 |  |  |
| CC1(C)CCC[C@H]([C@H](O)c2ccccc2Cl)N1 [Example 5, (R)-(2-Chlorophenyl)((R)-6,6-dimethylpiperidin-2-yl)methanol hydrochloride] | 25 to 50 | < 25 |  |  |
| CC1(C)CCC[C@H]([C@@H](O)c2ccccc2Cl)N1 [Example 6, (S)-(2-Chlorophenyl)((R)-6,6-dimethylpiperidin-2-yl)methanol hydrochloride] | > 75 | < 25 |  |  |
| CC1(C)CCC[C@H]([C@H](O)c2cccc(Cl)c2)N1 [Example 7, hydrochloride] | 25 to 50 | < 25 |  |  |
| CC1(C)CCC[C@H]([C@H](O)c2ccccc2F)N1 [Example 9, (R)-((R)-6,6-Dimethylpiperidin-2-yl)(2-fluorophenyl)methanol hydrochloride] | 50 to 75 | < 25 |  |  |
| CC1(C)CCC[C@H]([C@@H](O)c2ccccc2F)N1 [Example 10, (S)-((R)-6,6-Dimethylpiperidin-2-yl)(2-fluorophenyl)methanol hydrochloride] | > 75 | 25 to 50 |  |  |
| CC1(C)CC[C@H]([C@H](O)c2cccc(F)c2)N1 [Example 11, (R)-((R)-5,5-Dimethylpyrrolidin-2-yl)(3-fluorophenyl)methanol hydrochloride] | > 75 | < 25 |  |  |
| CC1(C)CC[C@H]([C@@H](O)c2cccc(F)c2)N1 [Example 12, (S)-((R)-5,5-Dimethylpyrrolidin-2-yl)(3-fluorophenyl)methanol hydrochloride] | 25 to 50 | < 25 |  |  |
| CC1(C)CC[C@@H]([C@H](O)c2cccc(F)c2)N1 [Example 13, (R)-((S)-5,5-Dimethylpyrrolidin-2-yl)(3-fluorophenyl)methanol hydrochloride] | < 25 | < 25 |  |  |
| CC1(C)CC[C@@H]([C@@H](O)c2cccc(F)c2)N1 [Example 14, (S)-((S)-5,5-Dimethylpyrrolidin-2-yl)(3-fluorophenyl)methanol hydrochloride] | 25 to 50 | < 25 |  |  |
| CC1(C)CC[C@H]([C@H](O)c2cccc(O)c2)N1 [Example 15, (R)-((R)-5,5-Dimethylpyrrolidin-2-yl)(hydroxy)methyl)phenol acetate] | > 75 | < 25 |  |  |
| CC1(C)CC[C@H]([C@@H](O)c2cccc(O)c2)N1 [Example 16, (S)-((R)-5,5-Dimethylpyrrolidin-2-yl)(hydroxy)methyl)phenol acetate] | 50 to 75 | < 25 |  |  |
| CC1(C)CC[C@@H]([C@H](O)c2cccc(O)c2)N1 [Example 17] | 25 to 50 | < 25 |  |  |
| CC1(C)CC[C@@H]([C@@H](O)c2cccc(O)c2)N1 [Example 18] | < 25 | < 25 |  |  |
| CC1(C)CC[C@H]([C@H](O)c2ccccc2F)N1 [Example 19, (R)-((R)-5,5-Dimethylpyrrolidin-2-yl)(2-fluorophenyl)methanol hydrochloride] | > 75 | < 25 |  |  |

| Compound | Emax at 10 µM [1] [%] | Emax at 10 µM [2] [%] | Biological example 3 [1] | Biological example 4 [2] |
| --- | --- | --- | --- | --- |
| CC1(C)CC[C@H]([C@@H](O)c2ccccc2F)N1 [Example 20, (S)-((R)-5,5-Dimethylpyrrolidin-2-yl)(2-fluorophenyl)methanol hydrochloride] | 25 to 50 | < 25 |  |  |
| CC1(C)CC[C@H]([C@H](O)c2ccc(F)cc2)N1 [Example 21, (R)-((R)-5,5-Dimethylpyrrolidin-2-yl)(4-fluorophenyl)methanol hydrochloride] | 50 to 75 | < 25 |  |  |
| CC1(C)CC[C@H]([C@@H](O)c2ccc(F)cc2)N1 [Example 22, (S)-((R)-5,5-Dimethylpyrrolidin-2-yl)(4-fluorophenyl)methanol hydrochloride] | < 25 | < 25 |  |  |
| CC1(C)CC[C@H]([C@H](O)c2ccccc2Cl)N1 [Example 23, (R)-(2-Chlorophenyl)((R)-5,5-dimethylpyrrolidin-2-yl)methanol hydrochloride] | > 75 | < 25 |  |  |
| CC1(C)CC[C@H]([C@@H](O)c2ccccc2Cl)N1 [Example 24, (S)-(2-Chlorophenyl)((R)-5,5-dimethylpyrrolidin-2-yl)methanol hydrochloride] | < 25 | < 25 |  |  |
| CC1(C)CC[C@H]([C@H](O)c2cccc(Cl)c2)N1 [Example 25, (R)-(3-Chlorophenyl)((R)-5,5-dimethylpyrrolidin-2-yl)methanol hydrochloride] | > 75 | < 25 |  |  |
| CCCC1(CCC)CC[C@H]([C@H](O)c2cccc(F)c2)N1 [Example 27, (R)-((R)-5,5-Dipropylpyrrolidin-2-yl)(3-fluorophenyl)methanol hydrochloride] | 50 to 75 | < 25 |  |  |
| CCCC1(CCC)CC[C@H]([C@@H](O)c2cccc(F)c2)N1 [Example 28, (S)-((R)-5,5-Dipropylpyrrolidin-2-yl)(3-fluorophenyl)methanol hydrochloride] | < 25 | < 25 |  |  |
| O[C@H](c1cccc(F)c1)[C@H]1CCC2(CC2)N1 [Example 29, (R)-(3-Fluorophenyl)((R)-4-azaspiro[2.4]heptan-5-yl)methanol hydrochloride] | 50 to 75 | < 25 |  |  |
| O[C@@H](c1cccc(F)c1)[C@H]1CCC2(CC2)N1 [Example 30, (S)-(3-Fluorophenyl)((R)-4-azaspiro[2.4]heptan-5-yl)methanol hydrochloride] | 25 to 50 | < 25 |  |  |
| O[C@H](c1cccc(F)c1)[C@H]1CCC2(CCCC2)N1 [Example 31, (R)-(3-Fluorophenyl)((R)-1-azaspiro[4.4]nonan-2-yl)methanol maleate] | 50 to 75 | 25 to 50 |  |  |
| O[C@@H](c1cccc(F)c1)[C@H]1CCC2(CCCC2)N1 [Example 32, (S)-(3-Fluorophenyl)((R)-1-azaspiro[4.4]nonan-2-yl)methanol maleate] | < 25 | < 25 |  |  |
| CC1(C)C[C@H]([C@H](O)c2cccc(F)c2)N1.Cl [Example 33, (R)-((R)-4,4-dimethylazetidin-2-yl)(3-fluorophenyl)methanol hydrochloride] |  |  | +++ (more than 75% of that of isoproterenol) | ++ (between 75 and 50%) |
| CC1(C)C[C@@H]([C@@H](O)c2ccccc2F)N1.Cl [Example 34, (S)-((S)-4,4-dimethylazetidin-2-yl)(2-fluorophenyl)methanol hydrochloride] |  |  | + (between 50 and 25%) | − (less than 25%) |
| CC1(C)C[C@H]([C@H](O)c2ccccc2F)N1.Cl [Example 35, (R)-((R)-4,4-dimethylazetidin-2-yl)(2-fluorophenyl)methanol hydrochloride] |  |  | +++ (more than 75% of that of isoproterenol) | + (between 50 and 25%) |
| CC1(C)C[C@H]([C@@H](O)c2ccccc2F)N1.Cl [Example 36, (S)-((R)-4,4-dimethylazetidin-2-yl)(2-fluorophenyl)methanol hydrochloride] |  |  | + (between 50 and 25%) | − (less than 25%) |
| CC1(C)CC[C@H]([C@@H](O)c2cc(F)c(N)c(F)c2)N1.Cl [Example 51, (S)-(4-Amino-3,5-difluorophenyl)((R)-5,5-dimethylpyrrolidin-2-yl)methanol hydrochloride] |  |  | +++ (more than 75% of that of isoproterenol) |  |
